The text below walks through data of US20100048545A1, “Compounds and Compositions for Use in the Prevention and Treatment of Disorders of Fat Metabolism and Obesity” (INNODIA INC., priority 2006, published 2010).

One data set has as its system ob/ob mouse. The data set can be described thus: Body weight gain and food consumption of ob/ob mice, 56 days. Format: in vivo. The following applies: 100 mg/kg twice daily. An excerpt: The objective of this study was to evaluate the effect of chronic administration of 4-hydroxyisoleucine (4-OH, compound 14a) on food consumption and body weight gain in a genetic model of obesity, the ob/ob mouse. Body weight gain and food consumption were monitored for 1 week prior to the commencement of treatment, and then for the 56 days of treatment.
A total of 16 animals were used in the study. The animals were distributed into 2 groups (1 treated, 1 control group, all on standard chow). Each group was composed of 8 animals. The mice were randomized according to body weight values.
For the eight weeks of treatment, the test agent was dissolved in reverse osmosis water. 4-hydroxyisoleucine was aliquoted and kept at 4° C. Control animals received reverse osmosis water twice daily (group 1). Mice from group 2 were treated twice daily with 4-OH at 100 mg/kg. All groups were treated by oral gavage. Treatment commenced on Day 0 and ended on Day 56 (FIGS. 21A and 21B). Food consumption was measured daily and averaged on a weekly basis beginning one week before the start of treatment as shown in FIG. 21B.

The test system of data set [1] is C57BL/6 mice fed a high fat diet. The experiment in a line: Analogs and isomers of 4-hydroxyisoleucine on body weight gain in C57BL/6 mice fed a high fat diet, 3 days. Format: in vivo. How it is done: C57BL/6 mice were received at 6-7 weeks of age and fed a standard commercial chow for 1 week (acclimation period). The animals were randomized based on their body weight values, into control and treatment groups (n=6). Then, animals were shifted to a high fat diet (60% of calories from fat) and treated twice daily by oral gavage with 4-hydroxyisoleucine (4-OH, compound 14a) or different analogs and isomers of 4-OH at the dose of 100 mg per kg of body weight for 3 days. The control group (Control HFD) received vehicle (water) alone and a group was kept under standard chow (Control Lean). Body weight of the mice was recorded daily. Two different experiments were run and the effect on body weight gain of selected analogs and isomers according to the invention is presented in FIG. 30A (Experiment 1) and FIG. 30B (Experiment 2).

Each structure is given as a SMILES string.

For the molecule `C[C@@H]([C@H](C)O)[C@H](N)C(=O)O` [Compound 14a, (2S,3R,4S)-4-Hydroxyisoleucine], in the data set on ob/ob mouse, the food consumption result was “slight decrease in food consumption during the first three weeks of treatment”. Further, the weight gain result with ob/ob mouse (Day 21 to Day 56, vs control group) is on record as “significantly reduced”; in the data set with ob/ob mouse (course of treatment), “moderation of weight gain was observed”. Besides, the tolerability of treatment entry in the data set with ob/ob mouse (oral gavage, 56 days) is given as “well tolerated”. Besides, the “body weight gain induced by the high fat diet” value in data set [1] (100 mg/kg twice daily oral gavage) was “reduced body weight gain induced by the high fat diet”. Moreover, the “body weight compared to pre-treatment values” in data set [1] (100 mg/kg twice daily, one experiment (FIG. 30B)) is recorded as “reduced body weight of the mice as compared to pre-treatment values”.
